Square brackets hold non-standard residues; d marks the D form. Peptide text beside a SMILES is read from it. * marks the point of attachment. Tyr(3-Cl) = N[C@@H](Cc1ccc(O)c(Cl)c1)C(=O)O; Benzoyl(3,5-Cl2) = O=C(c1cc(Cl)cc(Cl)c1)*; Lys(Et2) = CCN(CC)CCCC[C@H](N)C(=O)O; Gly(cPent) = N[C@H](C(=O)O)C1CCCC1; NH(propargyl) = C#CCN*
Experiments:
[1] = biological target: T1, CBX2 ChD (Homo sapiens, UniProt Q14781); assay: Direct fluorescence polarization (FP) binding assay
T1 construct: CBX chromodomain constructs; host or cells: E. coli BL21 CodonPlus RIL
T1 sequence (Q14781 12-70 limits assumed): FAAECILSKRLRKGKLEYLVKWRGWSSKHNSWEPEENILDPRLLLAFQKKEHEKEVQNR

[2] = biological target: T2, CBX8 binding to chromatin (Homo sapiens, UniProt Q9HC52); assay: ChIP-qPCR in Hs68 fibroblast cells; assay type: cell-based; conditions: 100 μM, 4 h
T2 construct: endogenous in cells; host or cells: Hs68 fibroblasts (A16); HEK293T (A19); K562 (A23)
T2 sequence (Q9HC52 1-389): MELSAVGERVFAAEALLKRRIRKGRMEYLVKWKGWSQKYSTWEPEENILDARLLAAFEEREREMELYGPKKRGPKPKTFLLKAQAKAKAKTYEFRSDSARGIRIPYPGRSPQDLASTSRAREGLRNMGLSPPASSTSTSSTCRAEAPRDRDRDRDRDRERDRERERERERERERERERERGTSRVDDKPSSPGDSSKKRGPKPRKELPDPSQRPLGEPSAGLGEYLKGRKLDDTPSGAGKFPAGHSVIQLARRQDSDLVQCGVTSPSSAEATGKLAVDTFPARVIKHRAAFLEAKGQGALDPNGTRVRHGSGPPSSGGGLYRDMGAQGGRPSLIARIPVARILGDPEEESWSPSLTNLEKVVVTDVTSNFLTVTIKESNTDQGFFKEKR
Procedure: ChIP: Hs68 cells were seeded at 4×10^6 in a 10 cm cell culture plates 16 hours prior to treatment. […] ChIP was performed as described in Connelly et al., 2018. Birefly, cells were washed with PBS and fixed on the plate with CiA Fix buffer (50 mM HEPES, pH 8.0, 1 mM EDTA, 0.5 mM ETGA, 100 mM NaCl) and 1% formaldehyde for 10 min at room temperature. Crosslinking was quenched with 0.125 M glycine for 5 min at 4° C. Cells were washed once with PBS and lifted off the plate then resuspended in CiA NP Rinse buffer 1 (50 mM HEPES pH 8.0, 140 mM NaCl, 1 mM EDTA, 10% glycerol, 0.5% NP-40, 0.25% Triton X) for 10 min. Cells were pelleted at 1200×g for 5 min at 4° C. The supernatant was removed, and the cells were resuspended in CiA NP rinse buffer 2 (10 mM Tris pH 8.0, 1 mM EDTA, 0.5 mM EGTA, 200 mM NaCl). Cells were collected by centrifugation, 1200×g for 5 min. Supernatant was removed and the cells were washed twice with shearing buffer (0.1% SDS, 1 mM EDTA, 10 mM Tris HCl, pH 8.0). Cells were resuspended in shearing buffer and sonicated for 7 min with the probe (Branson). Lysate was centrifuged at 21,000×g for 15 min to remove debris. Supernatant was collected and pre-cleared overnight with Protein A/G magnetic beads (Pierce). […]
qPCR: qPCR was performed on the isolated ChIP DNA using SYBR master mix (Thermo) and run on the BioRad CFX thermo cycler. […] Enrichment was determined by percent input. […]

[3] = test system: RWPE-1 cells, HEK293T cells; assay: Viability of non-transformed / control cells; assay type: cell-based

selectivity for CBX2 over the other paralogs ([1]; calculated from Kd values): at least 24 fold | Kd ([1]; read-out: Kd to CBX2): ~0.08 µM | CBX8 binding at target loci, ChIP-qPCR [2]: significant reduction of CBX8 binding
Compound: C#CCNC(=O)[C@H](CO)NC(=O)[C@H](CCCCN(CC)CC)NC(=O)[C@@H](NC(=O)[C@@H](NC(=O)[C@H](Cc1ccc(O)c(Cl)c1)NC(=O)c1cc(Cl)cc(Cl)c1)C1CCCC1)[C@@H](C)CC [SW2_152F] ({Benzoyl(3,5-Cl2)}-[Tyr(3-Cl)][Gly(cPent)]I[Lys(Et2)]S-{NH(propargyl)})
viability of RWPE-1 cells or HEK293T cells [3]: did not affect the viability

From US20210284691A1, “CBX8 CHROMDOMAIN INHIBITORS AND THE USES THEREOF” (Purdue Research Foundation, priority 2019, published 2021)
